Laboratory results from PMC11089204 (Frontiers in Pharmacology, 2024).
Read-outs that look alike come from different tables or passages of the source.

What was measured:
[1] = target: T1, recombinant CYP2D6 (Homo sapiens, UniProt P10635); experiment: Incubation with recombinant CYP2D6 enzymes; assay type: in vitro ADME
T1 construct: purchased Corning Life Sciences B.V
Method: (§1) Corning UltraPool human liver microsomes (HLM) 150 (20 mg/mL), human intestinal microsomes (HIM) pool (10 mg/mL) as well as recombinant human CYP enzymes (with P450 oxidoreductase, OR) including CYP1A2+OR (0.5 nmol), CYP2B6+OR (0.5 nmol), CYP2C8+OR (1.0 nmol), CYP2C9*1+OR (1 nmol), CYP2C19+OR (0.5 nmol), CYP2D6*1+OR (0.5 nmol), CYP2E1+OR + cytochrome b5 (1 nmol), CYP3A4+OR + cytochrome b5 (0.5 nmol), MAO-A (5 mg/mL), MAO-B (5 mg/mL), and UGT1A10 (5 mg/mL) were purchased from Corning Life Sciences B.V (Amsterdam, Netherlands). All microsomes and recombinant enzyme solutions were aliquoted and stored at −80 °C until further use.
(§2) The total volume of the reaction mixture was 500 μL. […] Samples were either directly analyzed by liquid chromatography tandem mass spectrometry (LC-MS/MS) or briefly stored at −20°C until analysis.

[2] = target: T2, recombinant CYP3A4 (Homo sapiens, UniProt P08684); experiment: Incubation with recombinant CYP3A4 enzymes; assay type: in vitro ADME; conditions: for formation of metabolite from psilocin: rec. CYP3A4
T2 construct: purchased Corning Life Sciences B.V
Method: as §1, §2

[3] = target: T3, MAO-A in human liver microsomes (HLM) (Homo sapiens, UniProt P21397); experiment: Monoamine oxidase A inhibition in human liver microsomes; assay type: in vitro ADME; conditions: for biotransformation on incubation with HLM: 1,000 nM 4-HIAA or 4-HTP incubated with HLM; for metabolite concentration formed from psilocin (mean ± SD) / metabolite formation from psilocin in presence of clorgyline: 1,000 nM psilocin; for metabolite concentration formed from psilocin (mean ± SD): HLM alone, t = 240 min; for metabolite formation from psilocin in presence of clorgyline: HLM with MAO-A inhibitor clorgyline
T3 construct: tissue Corning Life Sciences B.V; host or cells: pooled human liver microsomes
T3 sequence (P21397 1-527): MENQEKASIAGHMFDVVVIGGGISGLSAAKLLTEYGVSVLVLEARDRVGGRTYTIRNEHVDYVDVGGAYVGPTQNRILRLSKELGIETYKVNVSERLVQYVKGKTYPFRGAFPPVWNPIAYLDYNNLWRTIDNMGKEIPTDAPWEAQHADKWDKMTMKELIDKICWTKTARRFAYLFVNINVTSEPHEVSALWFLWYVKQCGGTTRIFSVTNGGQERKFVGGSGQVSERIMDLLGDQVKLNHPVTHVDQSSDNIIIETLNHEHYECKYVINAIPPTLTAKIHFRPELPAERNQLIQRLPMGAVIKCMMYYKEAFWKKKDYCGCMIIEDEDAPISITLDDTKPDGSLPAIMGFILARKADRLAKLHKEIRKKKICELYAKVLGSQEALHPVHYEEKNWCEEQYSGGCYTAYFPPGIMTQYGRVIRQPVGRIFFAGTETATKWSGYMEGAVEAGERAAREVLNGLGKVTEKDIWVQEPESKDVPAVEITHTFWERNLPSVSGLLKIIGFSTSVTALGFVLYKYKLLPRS

[4] = target: T4, recombinant MAO-A (Homo sapiens, UniProt P21397); experiment: Incubation with recombinant MAO-A enzymes; assay type: in vitro ADME; conditions: for metabolite concentration formed from psilocin: 300 min; for metabolite formation from psilocin in presence of clorgyline: rec. MAO-A with clorgyline
T4 construct: purchased Corning Life Sciences B.V
T4 sequence (P21397 1-527): T3 sequence (P21397 1-527)
Method: as §1
(§3) The MAO inhibition assay was based on the assay described in section 2.5.1 and performed identically if not otherwise stated.

[5] = target: T5, recombinant MAO-B (Homo sapiens, UniProt P27338); experiment: Incubation with recombinant MAO-B enzymes; assay type: in vitro ADME; conditions: 1,000 nM psilocin, rec. MAO-B
T5 construct: purchased Corning Life Sciences B.V
T5 sequence (P27338 1-520): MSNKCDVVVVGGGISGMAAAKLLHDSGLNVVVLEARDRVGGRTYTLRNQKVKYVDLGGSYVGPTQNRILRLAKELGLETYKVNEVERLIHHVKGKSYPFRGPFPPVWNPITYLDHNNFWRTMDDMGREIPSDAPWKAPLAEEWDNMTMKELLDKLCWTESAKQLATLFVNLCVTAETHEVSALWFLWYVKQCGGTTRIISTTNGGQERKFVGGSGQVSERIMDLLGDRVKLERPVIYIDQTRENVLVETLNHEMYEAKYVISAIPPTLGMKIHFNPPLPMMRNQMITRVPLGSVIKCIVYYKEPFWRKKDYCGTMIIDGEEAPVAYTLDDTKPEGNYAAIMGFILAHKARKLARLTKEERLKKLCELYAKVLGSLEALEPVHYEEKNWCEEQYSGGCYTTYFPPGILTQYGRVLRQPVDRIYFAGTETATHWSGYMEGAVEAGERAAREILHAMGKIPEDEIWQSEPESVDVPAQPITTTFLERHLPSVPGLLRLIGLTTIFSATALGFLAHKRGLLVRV
Method: as §1, §3

[6] = target: T6, human 5-HT1A receptor (Homo sapiens, UniProt P08908); experiment: 5-HT activation potency (IP1 accumulation), 5-HT1A; assay type: cell-based; set-up: expressed in transfected cells
T6 sequence (P08908 1-422): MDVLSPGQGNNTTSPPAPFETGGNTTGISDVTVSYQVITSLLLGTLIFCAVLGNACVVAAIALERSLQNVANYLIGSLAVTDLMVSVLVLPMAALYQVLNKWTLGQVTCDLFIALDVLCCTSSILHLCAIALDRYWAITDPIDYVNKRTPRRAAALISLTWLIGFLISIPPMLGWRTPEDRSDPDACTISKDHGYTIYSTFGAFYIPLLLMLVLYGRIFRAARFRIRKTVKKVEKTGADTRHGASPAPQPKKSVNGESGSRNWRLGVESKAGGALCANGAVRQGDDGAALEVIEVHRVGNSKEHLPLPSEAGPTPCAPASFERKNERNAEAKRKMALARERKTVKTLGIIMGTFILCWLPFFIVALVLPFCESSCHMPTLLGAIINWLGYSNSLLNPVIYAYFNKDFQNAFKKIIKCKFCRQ
Method: . […] NIH/3T3 cells stably expressing the human 5-HT1A, 5-HT2A, and 5-HT2B receptors were seeded at a density of 3,000 cells (5-HT1A and 5-HT2A) or 4,000 cells (5-HT2B) in 384-well plates using Opti-MEM medium from Gibco (ThermoFisher, Life Technologies, Zug, Switzerland). Subsequently, the test compounds were introduced, and the plates were incubated for 90 min at 37°C, followed by a 60 min incubation with Anti-IP1-Cryptate and IP1-d2 at room temperature. The formation of stimulated IP1 was quantified by homogeneous time-resolved fluorescence (HTRF) measurements using a BioTek Synergy H1 microplate reader (Agilent Technologies, Basel, Switzerland). The obtained raw data for receptor activation were subjected to normalization, wherein the baseline signal was set at 0%, and the maximum signal stimulated by 5-HT at the specific receptor was established as 100%.

[7] = Metabolites in human plasma after oral psilocybin (reanalysed study samples); conditions: for Tmax: human, plasma, po, 30 mg
[8] = NIH/3T3 cells, IP1 accumulation, read-out: h5-HT1A Activation potency EC50 ± SD

T2 sequence (P08684 2-503 limits assumed): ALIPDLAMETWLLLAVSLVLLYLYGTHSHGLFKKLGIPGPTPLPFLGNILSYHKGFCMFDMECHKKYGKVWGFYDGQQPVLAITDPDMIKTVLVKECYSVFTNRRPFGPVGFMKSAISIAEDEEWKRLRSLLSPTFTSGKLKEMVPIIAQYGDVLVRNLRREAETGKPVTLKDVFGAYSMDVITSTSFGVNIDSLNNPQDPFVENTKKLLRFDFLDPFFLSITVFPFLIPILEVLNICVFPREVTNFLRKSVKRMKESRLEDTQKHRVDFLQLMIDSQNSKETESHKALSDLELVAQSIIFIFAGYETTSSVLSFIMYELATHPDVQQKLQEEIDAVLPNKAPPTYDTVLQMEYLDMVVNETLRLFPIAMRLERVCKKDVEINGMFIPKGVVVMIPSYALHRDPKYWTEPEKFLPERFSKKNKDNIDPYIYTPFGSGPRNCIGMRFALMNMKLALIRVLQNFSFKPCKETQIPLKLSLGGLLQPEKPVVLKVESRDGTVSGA
T1 sequence (P10635 whole entry): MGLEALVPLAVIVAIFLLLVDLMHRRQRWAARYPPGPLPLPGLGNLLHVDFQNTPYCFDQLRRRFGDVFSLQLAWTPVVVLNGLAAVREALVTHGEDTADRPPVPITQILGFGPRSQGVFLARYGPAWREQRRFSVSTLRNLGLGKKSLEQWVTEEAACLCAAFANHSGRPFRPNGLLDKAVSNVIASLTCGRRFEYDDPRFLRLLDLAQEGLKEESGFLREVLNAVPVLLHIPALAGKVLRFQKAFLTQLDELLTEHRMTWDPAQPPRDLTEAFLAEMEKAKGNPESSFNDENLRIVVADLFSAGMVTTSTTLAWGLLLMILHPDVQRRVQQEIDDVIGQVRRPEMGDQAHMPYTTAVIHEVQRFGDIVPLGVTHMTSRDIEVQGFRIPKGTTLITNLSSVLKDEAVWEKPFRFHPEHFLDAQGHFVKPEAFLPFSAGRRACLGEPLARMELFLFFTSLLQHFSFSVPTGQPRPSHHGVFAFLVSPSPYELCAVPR

Row | Structure (SMILES) | formation of metabolite from psilocin ([1]; rec. CYP2D6) | formation of metabolite from psilocin [2] | biotransformation on incubation with HLM [3] | metabolite concentration formed from psilocin (mean ± SD) [3] [nM] | metabolite formation from psilocin in presence of clorgyline [3] | metabolite concentration formed from psilocin ([4]; 1,000 nM psilocin, rec. MAO-A) [nM] | metabolite formation from psilocin in presence of clorgyline [4] | formation of metabolite from psilocin [5] | EC50 [6, 8] [µM] | Tmax [7] [h] | also measured
1 | O=C(O)Cc1c[nH]c2cccc(O)c12 [4-HIAA, 4-hydroxyindole-3-acetic acid] | neither observed | neither observed | did not lead to any biotransformation | 8.5 ± 3.8 | complete inhibition | 20.1 ± 2.8 | inhibited | did not produce any | > 10 | ~2.5 | –
2 | OCCc1c[nH]c2cccc(O)c12 [4-HTP, 4-hydroxytryptophol] | neither observed | neither observed | did not lead to any biotransformation | 25.3 ± 6.0 | complete inhibition | 16.9 ± 2.9 | inhibited | did not produce any | > 10 | – | detection in human plasma ([7]; 30 mg psilocybin p.o., n = 5): neither norpsilocin nor 4-HTP was detected
3 | CN(C)CCc1c[nH]c2cccc(O)c12 [psilocin, 4-hydroxy-N,N-dimethyltryptamine] | – | – | – | – | – | – | – | – | – | ~2.5 | psilocin concentration (mean ± SD) ([1]; 1,000 nM psilocin, rec. CYP2D6, t = 0 min): 937 ± 145 nM; psilocin concentration (mean ± SD) ([1]; 1,000 nM psilocin, rec. CYP2D6, t = 240 min): 21.1 ± 14.2 nM; psilocin metabolized ([1]; rec. CYP2D6): ~100%; psilocin concentration (mean ± SD) ([1]; rec. CYP2D6 with quinidine, t = 0 min): 1,081 ± 241 nM; psilocin concentration (mean ± SD) ([1]; rec. CYP2D6 with quinidine, t = 240 min): 747 ± 30 nM; decrease of psilocin concentration / psilocin metabolized ([2]; 1,000 nM psilocin, rec. CYP3A4, 240 min): 40%; psilocin concentration ([2]; rec. CYP3A4, t = 0 min): 916 ± 145 nM; psilocin concentration ([2]; rec. CYP3A4, t = 240 min): 546 ± 41 nM; psilocin metabolized ([2]; rec. CYP3A4 with ketoconazole, 240 min): 26%; psilocin concentration ([2]; rec. CYP3A4 with ketoconazole, t = 0 min): 973 ± 133 nM; psilocin concentration ([2]; rec. CYP3A4 with ketoconazole, t = 240 min): 720 ± 71 nM; change of psilocin concentration ([3]; 1,000 nM psilocin with HLM): did not visibly decrease; change of psilocin concentration ([4]; 1,000 nM psilocin, rec. MAO-A): did not visibly decrease; change of psilocin concentration [5]: did not visibly decrease; EC50 [6]: 0.0017 ± 0.0024 µM
